Data published in article PMC3927586, “Protein kinase C-delta inactivation inhibits the proliferation and survival of cancer stem cells in culture and in vivo” (BMC Cancer, 2014).
Read-outs that look alike come from different tables or passages of the source.

Tests used:
MCF 10C cells = test: Tumor spheroid formation, MCF 10C; type: cell-based, human; details: spheroids enumerated at 10 days
Procedure: (§1) Tumor self-renewing and anchorage-independent spheroids were obtained by culturing breast cancer cells MCF7, Hs587T and MDA231; melanoma cells SBcl2 and FM6; human breast cancer stem cells and pancreatic cancer stem cells in stem cell-selective conditions according to the manufacturer’s instructions (StemCell Technologies, Tukwila, WA). Briefly, cancer and cancer stem cells were propagated in 6-well ultra-low adherent plates (Corning) in Complete MammoCult Medium (Human) by adding 50 mL of MammoCult Proliferation Supplements to 450 mL of MammoCult Basal Medium (StemCell Technologies). The following were added to obtain Complete MammoCult Medium: 4 ug/mL Heparin (StemCell Technologies), 0.48 μg/mL hydrocortisone (StemCell Technologies), 200 U penicillin/ml; and 200 μg streptomycin/ml (Invitrogen).
Figure 5 Effects of PKCδ inhibitors on growth and spheroid formation in non-transformed and transformed human breast epithelial cells. […] After 24, 48 and 72 hr of exposure, cell mass was evaluated by MTT assay. […] (C) MCF 10A and MCF 10C cells were plated at 10,000 cells per well in tumor spheroid media, and spheroid formation was assessed at days 10 and 21. […]

[1] = Drug-like properties: bioavailability; details: in vivo delivery
recombinant PKCα = molecular target: T1, recombinant PKCα (Homo sapiens, UniProt P17252); test: PKC kinase activity assay (Z-lyte), PKCα; type: biochemical
T1 construct: purchased Invitrogen
Procedure: Assays were carried out using recombinant PKCδ or PKCα, (Invitrogen) and the Z-lyte Kinase Assays (Invitrogen) with a “PKC-kinase-specific” peptide substrate. FRET interactions produce a change in fluorescence (ex455/ex520) upon phosphorylation. The kit was used according to the manufacturer’s instructions.

[2] = test system: breast cancer stem cells (BCSC); test: Tumor spheroid formation, BCSC; type: cell-based, human; details: added to culture medium, 96 hr, p≤0.001
Procedure: as §1
(§2) Figure 4 Effects of PKCδ inhibitors on human tumor cell spheroid formation. […] Tumor spheroids and adherent cells were collected at 96 hr, stained for CD24 and CD44, and analyzed by flow cytometry. […] After 24, 48 and 72 hr of exposure, cell mass was evaluated by MTT assay. […] Viable cells were enumerated and re-plated in media without BJE6-206, and spheroid numbers were quantitated 96 hr later. p values for comparison between vehicle and BJE6-106 effects on spheroid number were significant after 6 hr of exposure (p≤0.02), and remained significant at all time points thereafter. […]

[3] = test system: pancreatic cancer stem cells (PCSC); test: Tumor spheroid formation, PCSC; type: cell-based, human; details: added to culture medium, 96 hr, p≤0.001
Procedure: as §1, §2

FN5 = test: Tumor spheroid growth, FN5 melanoma; type: cell-based, human; details: p < 0.001

| IC50 (recombinant PKCα; in vitro kinase assay, read-out: PKCα IC50) [µM] | SMILES | effect on growth of MCF 10C spheroids (MCF 10C cells; BJE6-106 at 1 μM) | bioavailability [1] | effect on formation of spheroids, BCSC [2] | effect on formation of spheroids, PCSC [3] | inhibition of tumor spheroid growth, FN5 (FN5; BJE6-106 at 0.5-1.0 μM) [%] | effect on growth of MCF 10C spheroids (MCF 10C cells; rottlerin at 10 μM) | IC50 (recombinant PKCα) [µM] | inhibition at 10 µM (FN5; Homo sapiens, rottlerin at 10 μM) [%] |
| --- | --- | --- | --- | --- | --- | --- | --- | --- | --- |
| 50 | CC1(C)C=Cc2cc(CCn3c4ccccc4c4ccccc43)cc(C=O)c2O1 [BJE6-106, 6-(2-(9H-carbazol-9-yl)ethyl)-2,2-dimethyl-2H-chromene-8-carbaldehyde] | efficiently inhibited | poorly bioavailable | very efficiently inhibited | very efficiently inhibited | > 99.5 | – | – | – |
| – | CC(=O)c1c(O)c(C)c(O)c(Cc2c(O)c3c(c(C(=O)/C=C/c4ccccc4)c2O)OC(C)(C)C=C3)c1O [rottlerin, Rottlerin, reference compound] | – | readily bioavailable | very efficiently inhibited | very efficiently inhibited | – | efficiently inhibited | 75 | > 99.5 |
